The results in this text go back to patent US20240390369A1, “METHODS FOR DETERMINING RESPONSIVENESS TO TYK2 INHIBITORS” (Bristol-Myers Squibb Company, priority 2021, published 2024).

The subject of one test is β-defensin 2 (BD2). Description: Serum β-defensin 2 level over sixteen weeks of treatment (ELISA). It is filed as in vivo, human. Conditions: 12 mg QD treatment arm; sixteen-week treatment period (FIG. 43B). On the procedure:
Levels of proteins in serum were measured at baseline and at various points during sixteen weeks of treatment with deucravacitinib. […] Levels of BD2 in serum samples were measured by ELISA; levels of IL-19 and IL-17A in serum were each measured by ultrasensitive Simoa technology.
On the technique in general: An ELISA detects its analyte on a solid surface through an enzyme-linked reagent.

In test [1] the test system is patients with psoriatic arthritis. The experiment in a line: Phase 2 trial in psoriatic arthritis: ACR20 response at week 16. It is filed as in vivo, human.

In the case of `[2H]C([2H])([2H])NC(=O)c1nnc(NC(=O)C2CC2)cc1Nc1cccc(-c2ncn(C)n2)c1OC` [deucravacitinib, 6-(cyclopropanecarboxamido)-4-((2-methoxy-3-(1-methyl-1H-1,2,4-triazol-3-yl)phenyl)amino)-N-(methyl-d3)pyridazine-3-carboxamide], in the test on β-defensin 2 (BD2), the “Change from baseline in serum BD2 level, PASI75 responders versus non-responders” value was “greater reductions in BD2 serum level were observed over time in the PASI75 responder group compared with the non-responder group”. Besides, the “Interaction Term for ACR20 response (ratio of odds ratios)” value in test [1] (adjusted for baseline DAS28, 12 mg QD vs placebo: IL-19-high versus IL-19-low) is 7.37. Also, the “Odds Ratio for ACR20 response” value in test [1] (adjusted for baseline DAS28, All patients, 6 mg QD vs placebo) came to 2.44; in test [1] (adjusted for baseline DAS28, BD2-high, 12 mg QD vs placebo) it was 7.33; in test [1] (adjusted for baseline DAS28, IL-17A-low, 12 mg QD vs placebo), 2.16.
